Assay: Rivastigmine's biopharmaceutical properties in humans
Type: in vivo
Text: Little has been published in detail on Rivastigmine's biopharmaceutical properties in humans. […] It is subject to pre-systemic and systemic metabolism. […] Suitable test may be effected in fasted beagle dogs.

CCN(C)C(=O)Oc1cccc([C@H](C)N(C)C)c1 [Rivastigmine]
absorption: rapidly and completely absorbed
metabolism (esterases, e.g., acetyl and butyryl cholinesterase): metabolised mainly through hydrolysis by esterases
half-life (human, plasma): 1 h
